{
  "source": "patent US20070025995A1",
  "about": "“Taxoid derivative covalently linked to tumor-specific antibody and a method for preparing the same” (priority 2005, published 2007)",
  "test_system": "tubulin",
  "assay": "Tubulin polymerization activity (HTS-Tubulin Polymerization Assay Kit, OD340)",
  "format": "biochemical",
  "details": "absorbance at 340 nm over reaction time; FIG. 1; paclitaxel control 3.7 mg/mL aqueous solution",
  "from_the_text": "The anticancer agent of the present invention has the structure of paclitaxel or docetaxel, and thus it was conjectured that the compound manifests its anticancer effects by inducing overproduction of tubulin in the same manner as paclitaxel or docetaxel. However, this compound blocks tubulin polymerization in the same manner as vinblastine. The tubulin polymerization activity assay was, as shown in Test Example 1, determined by measuring the absorbance at 340 nm and measuring tubulin polymerization activity.\nTubulin polymerization activity was measured using the HTS-Tubulin Polymerization Assay Kit (manufactured by Cytoskeleton) with respect to both the reaction solution of the present invention obtained in Example 1 and 3.7 mg/mL aqueous solution of paclitaxel used as a control.\nThe horizontal axis in the figure denotes reaction time (min) and the vertical axis represents tubulin polymerization activity (OD340).",
  "data": [
    {"smiles": "CC(=O)O[C@H]1C(=O)[C@@]2(C)[C@H]([C@H](OC(=O)c3ccccc3)[C@]3(O)C[C@H](OC(=O)[C@H](O)[C@@H](NC(=O)c4ccccc4)c4ccccc4)C(C)=C1C3(C)C)[C@]1(OC(C)=O)CO[C@@H]1C[C@@H]2O", "note": "[paclitaxel, Paclitaxel]", "values": [
      {"measurement": "tubulin polymerization activity (OD340)", "result": "tubulin polymerization was stimulated"}
    ]}
  ]
}
